{"source": "patent US11649222B2", "about": "“Compounds” (UNIVERSITETET I OSLO, priority 2016, dated 2023)", "key": {"[1]": {"test_system": "C. freundii (NDM)", "assay": "Microbroth dilution MIC of meropenem ± 25 mg/L inhibitor", "type": "cell-based", "procedure": "(§1) • Plate bacterial strain(s) on appropriate media: • Gram-negative bacteria with ESBLs or carbapenemases: green agar plates with 100 mg/L ampicillin • Gram-negative bacteria without β-lactamases: green agar plates • Gram-positive bacteria (Staphylococci and Enterococci): blood agar plates • Incubate o.n. at 37° C. Day 2: Prepare the Bacterial Inoculum: • Prepare a 0.5 McFarland suspension of bacteria in 0.85% NaCl. (Should be used within 15 min of preparation). • Dilute the 0.5 McFarland suspension 1:100 into MH broth. Check the inoculum by diluting the prepared bacterial suspension 1:100 (10 μl bacterial suspension+990 μl 0.85% NaCl). Plate 10 μl of the dilution on MH agar plates (×2). Incubate o.n. at 37° C., count the colonies and calculate the final CFU/ml inoculum in the plate by multiplying the average number of colonies with 10000 and divide by 2. The final inoculum should be between 3-7×10^5 CFU/ml. • Add 50 μl of the prepared bacterial suspension to each well in the microtiter plate except negative growth control. Preparation of Compounds/Antibiotics • Calculate the desired concentration-range and volume of the compounds/antibiotics in the assay. […] Dilute the stock solution in MH broth. Make subsequent 2-fold dilutions in MH broth of the desired concentrations if a concentration range is to be tested (remember the extra dilution factor in the assay plate). Always include extra volume for pipetting. Take into consideration stock solutions that are made in buffers that have an effect on bacterial growth (e.g. DMSO)."}, "[2]": {"test_system": "C. freundii (NDM-1)", "assay": "Microbroth dilution MIC of meropenem ± 25 mg/L inhibitor", "type": "cell-based", "procedure": "as §1"}, "[3]": {"test_system": "E. cloacae (VIM)", "assay": "Microbroth dilution MIC of meropenem ± 25 mg/L inhibitor", "type": "cell-based", "procedure": "as §1"}, "[4]": {"test_system": "E. coli (VIM-1)", "assay": "Microbroth dilution MIC of meropenem ± 25 mg/L inhibitor", "type": "cell-based", "procedure": "as §1"}, "[5]": {"test_system": "K. pneumoniae (NDM-1)", "assay": "Microbroth dilution MIC of meropenem ± 25 mg/L inhibitor", "type": "cell-based", "procedure": "as §1"}, "[6]": {"test_system": "K. pneumoniae (NDM-7)", "assay": "Microbroth dilution MIC of meropenem ± 25 mg/L inhibitor", "type": "cell-based", "procedure": "as §1"}, "[7]": {"test_system": "K. pneumoniae (VIM)", "assay": "Microbroth dilution MIC of meropenem ± 25 mg/L inhibitor", "type": "cell-based", "procedure": "as §1"}, "[8]": {"test_system": "M. morganii (OXA48+ NDM-1)", "assay": "Microbroth dilution MIC of meropenem ± 25 mg/L inhibitor", "type": "cell-based", "procedure": "as §1"}, "[9]": {"test_system": "P. mirabilis (NDM-1)", "assay": "Microbroth dilution MIC of meropenem ± 25 mg/L inhibitor", "type": "cell-based", "procedure": "as §1"}, "[10]": {"test_system": "P. stuartii (NDM)", "assay": "Microbroth dilution MIC of meropenem ± 25 mg/L inhibitor", "type": "cell-based", "procedure": "as §1"}, "[11]": {"test_system": "P. stuartii (NDM-1)", "assay": "Microbroth dilution MIC of meropenem ± 25 mg/L inhibitor", "type": "cell-based", "procedure": "as §1"}, "[12]": {"test_system": "E. coli 50676002 (NDM-1)", "assay": "Checkerboard MIC, Example 26 and meropenem", "type": "cell-based", "conditions": "for MIC: Escherichia coli", "procedure": "(§2) A checkerboard MIC assay was using the broth dilution method according to CLSI guidelines. […] Dilutions to 4 mg/ml was performed by adding+4.75 ml sterile saline to 0.25 ml of the stock solution, and dilutions to 512 μg/ml was performed by adding 10.9 ml MH-broth to the 4 mg/ml solution. Inoculums of bacterial strains as described in Table 4 were prepared by suspending fresh overnight colonies from 5% horse blood agar were to a turbidity of 0.5 McFarland and further diluted to 1×10^6 CFU/ml in MH-broth. Aliquots of 50 μl of MH-broth were added to each well of polystyrene microtiter plates. […] The plates were incubated at 35° C., 16-20 hours."}, "[13]": {"test_system": "K. pneumoniae K66-45 (NDM-1)", "assay": "Microbroth dilution MIC of carbapenem with/without inhibitor", "type": "cell-based", "procedure": "as §1, with “Day 2: Prepare the Bacterial Inoculum: • Prepare a 0.5 McFarland suspension of bacteria in 0.85% NaCl.” left out, “Check the inoculum by diluting the prepared bacterial suspension 1:100 (10 μl bacterial suspension+990 μl 0.85% NaCl).” left out"}, "[14]": {"test_system": "P. aeruginosa K34-7 (VIM-2)", "assay": "Microbroth dilution MIC of carbapenem with/without inhibitor", "type": "cell-based", "conditions": "Example 26 25 mg/L", "procedure": "as §1, with “Day 2: Prepare the Bacterial Inoculum: • Prepare a 0.5 McFarland suspension of bacteria in 0.85% NaCl.” left out, “Check the inoculum by diluting the prepared bacterial suspension 1:100 (10 μl bacterial suspension+990 μl 0.85% NaCl).” left out"}, "[15]": {"test_system": "resistant gram-negative MBL-based bacteria", "assay": "MICx: adjuvant concentration giving carbapenem MIC ≤ 2 mg/L", "type": "cell-based", "conditions": "lowest concentration of compound X that results in a MIC value of ≤ 2 mg/L for carbapenem antibiotics", "summary_of_the_method": "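Broth microdilution in MH broth; 0.5 McFarland suspension diluted 1:100 to a final inoculum of 3-7×10^5 CFU/ml. Compounds tested as 2-fold dilutions in MH broth. Carbapenemase/ESBL strains were pre-grown overnight at 37 °C on agar containing 100 mg/L ampicillin.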"}, "[16]": {"molecular_target": "rH glyoxylase II (Homo sapiens, UniProt Q16775)", "assay": "Interaction with zinc-containing human enzyme", "type": "biochemical", "conditions": "62.5-500 μM, 30 min, 25° C."}, "[17]": {"assay": "Solution stability on storage, measured indirectly by MIC", "type": "physicochemical", "conditions": "solution stored at 2-8° C.; MIC at 25 mg/L inhibitor", "text": "P. aeruginosa harboring VIM-2 and K. pneumonia bearing NDM-1 was used as two indicator strains."}, "[18]": {"test_system": "strains producing Klebsiella pneumoniae carbapenemases (KPC)", "assay": "Adjuvant activity with a carbapenem against KPC-producing strains", "type": "cell-based"}, "[19]": {"test_system": "K. pneumoniae K66-45 and P. aeruginosa K34-7", "assay": "Microbroth dilution MIC, carbapenem + inhibitor, two resistant clinical isolates", "type": "cell-based", "conditions": "Example 26 25 mg/L, three batches; meropenem and doripenem", "procedure": "as §1"}, "[20]": {"test_system": "meropenem-resistant K. pneumonia and E. coli", "assay": "Checkerboard MIC, all MDR isolates", "type": "cell-based", "conditions": "for some of the strains", "procedure": "as §2"}, "[21]": {"conditions": "Citrobacter freundii, read-out: MIC meropenem alone"}, "[22]": {"conditions": "K. pneumoniae NDM-1 (several strains)"}, "[23]": {"conditions": "Klebsiella pneumoniae, read-out: MIC meropenem alone"}, "[24]": {"conditions": "Providencia stuartii, read-out: MIC meropenem alone"}}, "note": "Several values for one entry are separate records, joined by “and”; a condition that tells them apart may be missing. Identical values can stand only once. Like-named read-outs stand apart in the source and are kept apart here."}
{"compound": "C[C@@H](O)[C@H]1C(=O)N2C(C(=O)O)=C(S[C@@H]3CN[C@H](C(=O)N(C)C)C3)[C@H](C)[C@H]12", "note": "[meropenem, reference compound]", "values": [{"measurement": "MIC", "setting": "[1]; [21]", "value": 16, "unit": "µg/mL"}, {"measurement": "MIC", "setting": "[2]; [21]", "value": 4, "unit": "µg/mL"}, {"measurement": "MIC", "setting": "[3]; Enterobacter cloacae, read-out: MIC meropenem alone", "value": 8, "unit": "µg/mL"}, {"measurement": "MIC", "setting": "[4]; Escherichia coli, read-out: MIC meropenem alone", "value": 0.5, "unit": "µg/mL"}, {"measurement": "MIC meropenem alone", "setting": "[5]; [22]", "value": 32, "unit": "µg/mL"}, {"measurement": "MIC", "setting": "[5]; Klebsiella pneumoniae, read-out: MIC meropenem alone, K. pneumoniae NDM-1 (several strains)", "value": 64, "unit": "µg/mL"}, {"measurement": "MIC", "setting": "[6]; [23]", "value": 64, "unit": "µg/mL"}, {"measurement": "MIC", "setting": "[7]; [23]", "value": 4, "unit": "µg/mL"}, {"measurement": "MIC", "setting": "[8]; Morganella morganii, read-out: MIC meropenem alone", "value": 8, "unit": "µg/mL"}, {"measurement": "MIC", "setting": "[9]; Proteus mirabilis, read-out: MIC meropenem alone", "value": 32, "unit": "µg/mL"}, {"measurement": "MIC", "setting": "[10]; [24]", "value": 64, "unit": "µg/mL"}, {"measurement": "MIC", "setting": "[11]; [24]", "value": 8, "unit": "µg/mL"}, {"measurement": "MIC", "setting": "[12]; read-out: MIC alone, Meropenem", "value": 32, "unit": "µg/mL"}, {"measurement": "MIC in combination, Meropenem", "setting": "[12]; with Example 26", "value": "≤0.0625", "unit": "µg/mL"}]}
{"compound": "CN(C[C@H](O)[C@@H](O)[C@H](O)[C@H](O)CO)C(=O)c1ccc(CN(Cc2ccccn2)Cc2ccccn2)nc1", "note": "[Example 26, 6-((bis(pyridin-2-ylmethyl)amino)methyl)-N-methyl-N-((2S,3R,4R,5R)-2,3,4,5,6-pentahydroxyhexyl)nicotinamide]", "values": [{"measurement": "MIC of doripenem (DOR) + Example 26", "setting": "[13]; Example 26 25 mg/L, K. pneumoniae K66-45 NDM-1", "value": "0.25 mg/L and 0.125 mg/L (2×)"}, {"measurement": "MIC", "setting": "[13]; Klebsiella pneumoniae, inhibitor 31.25 μM, 50 μM and 100 μM, K. pneumoniae K66-45, read-out: MIC of MEM in the presence of inhibitor", "value": 0.125, "unit": "µg/mL"}, {"measurement": "MIC of meropenem", "setting": "[13]; inhibitor 31.25 μM, K. pneumoniae K66-45 NDM-1", "value": 0.125}, {"measurement": "MIC of meropenem", "setting": "[13]; inhibitor 50 μM, K. pneumoniae K66-45 NDM-1", "value": 0.125}, {"measurement": "MIC of doripenem (DOR) + Example 26", "setting": "[14]", "value": 1, "unit": "µg/mL"}, {"measurement": "MICx", "setting": "[15]", "value": 31, "unit": "µM"}, {"measurement": "MIC meropenem + 25 mg/L Example 26", "setting": "[1]", "value": 0.06, "unit": "µg/mL"}, {"measurement": "MIC meropenem + 25 mg/L Example 26", "setting": "[2]", "value": 0.06, "unit": "µg/mL"}, {"measurement": "MIC meropenem + 25 mg/L Example 26", "setting": "[3]", "value": "<0.03", "unit": "µg/mL"}, {"measurement": "MIC meropenem + 25 mg/L Example 26", "setting": "[4]", "value": "<0.03", "unit": "µg/mL"}, {"measurement": "MIC meropenem + 25 mg/L Example 26", "setting": "[5]; [22]", "value": 0.125, "unit": "µg/mL"}, {"measurement": "MIC meropenem + 25 mg/L Example 26", "setting": "[6]", "value": "<0.03", "unit": "µg/mL"}, {"measurement": "MIC meropenem + 25 mg/L Example 26", "setting": "[7]", "value": 0.06, "unit": "µg/mL"}, {"measurement": "MIC meropenem + 25 mg/L Example 26", "setting": "[8]", "value": 1, "unit": "µg/mL"}, {"measurement": "MIC meropenem + 25 mg/L Example 26", "setting": "[9]", "value": 0.125, "unit": "µg/mL"}, {"measurement": "MIC meropenem + 25 mg/L Example 26", "setting": "[10]", "value": 0.25, "unit": "µg/mL"}, {"measurement": "MIC meropenem + 25 mg/L Example 26", "setting": "[11]", "value": 0.06, "unit": "µg/mL"}, {"measurement": "MIC", "setting": "[12]; read-out: MIC alone, Example 26", "value": "> 400", "unit": "µg/mL"}, {"measurement": "MIC in combination, Example 26", "setting": "[12]; with meropenem", "value": 12.5, "unit": "µg/mL"}, {"measurement": "interaction with rH glyoxylase II", "setting": "[16]", "value": "does not interact with rH glyoxylase II"}, {"measurement": "storage time at which a loss of activity was observed", "setting": "[17]", "value": "> 8", "unit": "months"}, {"measurement": "adjuvant activity with a carbapenem against KPC-producing strains", "setting": "[18]", "value": "does not show activity"}, {"measurement": "factor of potentiation of carbapenems", "setting": "[19]", "value": "32-256 times"}, {"measurement": "amplification of the effect of meropenem", "setting": "[20]", "value": "> 1000", "unit": "times"}]}
